{"source": "patent US8175815B2", "about": "“Method for assessing absorption properties of low solubility compounds” (F. Hoffmann-La Roche AG, priority 2006, dated 2012)", "key": {"[1]": {"conditions": "18 h"}, "[2]": {"conditions": "PAMPA"}, "[3]": {"conditions": "dogs, gel caps, 200 mg/kg; cited from earlier work"}, "physchem [4]": {"assay": "physchem"}, "physchem [5]": {"assay": "physchem", "remark": "listed apart in the source"}, "[6]": {"assay": "Excipient Effect: receiver UV AUC ratio in Double-Sink PAMPA with saturated donor (second embodiment)", "assay_type": "in vitro ADME", "conditions": "pH 5.0; receiver AUC with excipient / without excipient", "description": "The compounds are presented as DMSO solutions with a concentration of about 10 mM. They are further diluted in a universal aqueous buffer and adjusted to pH 5.0, 6.2, and 7.4 with 0.5 M NaOH. The background amount of DMSO in the aqueous solution is 0.5% v/v. Most of the compounds are insoluble in water, where they form saturated solutions with precipitation present. The calculated concentration of the compounds in the buffer is about 50 μM, but because of precipitation, the actual concentrations in the aqueous media must be lower than that, and are unknown. Saturated (non-filtered) solutions are transferred to the donor compartment of the PAMPA sandwich pre-loaded with magnetic stirrers. The filter of the PAMPA filter plate (the acceptor compartment of the PAMPA sandwich) is covered with GIT-lipid and filled with acceptor sink buffer (ASB). […]\nThus, it's not surprising that the absorption behavior for this compound at pH 5.0 is governed by the permeability and that the presence of the excipient in the donor compartment decreases the permeability of Butacaine. The second embodiment of the method of the invention allows detection of this behavior without separate measurements of the solubility and permeability constants, but by simple comparison of the compound concentrations (UV absorbance) in the receiver compartments."}, "[7]": {"conditions": "PAMPA, 30 min, 50 μM"}, "[8]": {"assay": "Double-Sink PAMPA permeability with and without excipients"}, "[9]": {"assay": "equilibrium solubility-pH, direct-UV microtitre plate (μSOL Evolution) with and without excipients", "conditions": "for solubility at 18 h / pKa at 18 h: aqueous universal buffer (pION); for solubility at 18 h: 25 °C, kinetic from dmso stock; for pKa at 18 h: saturated drug suspension, pKa^APP ± SD"}, "[10]": {"conditions": "cited from earlier work"}}, "note": "Where two headings read alike, the source gives them in different places."}
{"compound": "COc1ccc(Cl)cc1C(=O)NCCc1ccc(S(=O)(=O)NC(=O)NC2CCCCC2)cc1", "note": "[glybenclamide]", "values": [{"measurement": "n ± SD", "setting": "[1]", "value": "1.1 ± 0.1"}, {"measurement": "average flux gain factor", "setting": "[2]; pH 5", "value": 3.1}, {"measurement": "flux increase factor", "setting": "[2]; pH 5", "value": 20.1}, {"measurement": "flux increase factor", "setting": "[2]; pH 6.2", "value": 4.3}, {"measurement": "flux decrease factor", "setting": "[2]; pH 7.4", "value": 3}, {"measurement": "Cmax +HP-β-CD", "setting": "[3]", "value": 610, "unit": "ng/mL"}, {"measurement": "Cmax no excip.", "setting": "[3]", "value": 83.9, "unit": "ng/mL"}, {"measurement": "Tmax +HP-β-CD", "setting": "[3]", "value": 2.5, "unit": "h"}, {"measurement": "Tmax no excip.", "setting": "[3]", "value": 4.5, "unit": "h"}, {"measurement": "pKa", "setting": "physchem [4]", "value": "5.75 ± 0.15"}, {"measurement": "pKa at 18 h", "setting": "physchem [5]; negative shift in the apparent pKa", "value": 1.6}, {"measurement": "pKa at 18 h", "setting": "physchem [5]; pKa^APP ± SD", "value": "4.6 ± 0.1"}]}
{"compound": "CCCCN(CCCC)CCCOC(=O)c1ccc(N)cc1", "note": "[butacaine]", "values": [{"measurement": "excipient Effect", "setting": "[6]", "value": "< 1"}, {"measurement": "PABL 0 mM NaTC", "setting": "[7]", "value": 713}, {"measurement": "PABL 3 mM NaTC", "setting": "[7]", "value": 954}, {"measurement": "PABL 15 mM NaTC", "setting": "[7]", "value": 13}, {"measurement": "refined ABL thickness", "setting": "[7]", "value": "exceeding 75 μm"}, {"measurement": "net flux effect due to 1% HP-β-CD", "setting": "[2]; pH 5", "value": "loses at all pH values"}, {"measurement": "MW*/MW", "setting": "[8]; 3 mM NaTC (second value)", "value": 2}, {"measurement": "MW*/MW", "setting": "[8]; 15 mM NaTC (third value)", "value": 30000}, {"measurement": "MW*/MW", "setting": "[8]; apparent/true molecular weight, 40 μm ABL assumed, 0 mM NaTC (first value)", "value": 4}, {"measurement": "solubility at 18 h", "setting": "[9]; aqueous with cosolvent or surfactant or cyclodextrin", "value": 152, "unit": "µg/mL"}, {"measurement": "solubility at 18 h", "setting": "[9]; pH 5, aqueous buffer", "value": "> 50", "unit": "µM"}, {"measurement": "pKa at 18 h", "setting": "[9]; apparent ionization constant in saturated solution, excipient none", "value": "8.8 ± 0.2"}, {"measurement": "pKa at 18 h", "setting": "[9]; apparent ionization constant, excipient 3 mM NaTC", "value": "8.9 ± 0.2"}, {"measurement": "pKa at 18 h", "setting": "[9]; apparent ionization constant, excipient 15 mM NaTC", "value": "8.5 ± 0.1"}, {"measurement": "pKa at 18 h", "setting": "[9]; apparent ionization constant, excipient 0.1M KCl", "value": "8.3 ± 0.3"}, {"measurement": "pKa at 18 h", "setting": "[9]; apparent ionization constant, excipient 0.2M KCl", "value": "8.6 ± 0.1"}, {"measurement": "pKa at 18 h", "setting": "[9]; apparent ionization constant, excipient 1% HP-b-CD", "value": "8.1 ± 0.1"}, {"measurement": "pKa at 18 h", "setting": "[9]; apparent ionization constant, excipient 1% NMP", "value": "8.5 ± 0.1"}, {"measurement": "pKa at 18 h", "setting": "[9]; apparent ionization constant, excipient 1% PEG400", "value": "8.5 ± 0.1"}, {"measurement": "pKa at 18 h", "setting": "[9]; apparent ionization constant, excipient 1% PG", "value": "8.2 ± 0.1"}, {"measurement": "pKa at 18 h", "setting": "[9]; apparent ionization constant, excipient 5% PEG400", "value": 8.5}, {"measurement": "pKa at 18 h", "setting": "[9]; apparent ionization constant, excipient 5% PG", "value": "8.5 ± 0.2"}, {"measurement": "pKa at 18 h", "setting": "[9]; apparent ionization constant, excipient […] HP-b-CD", "value": "8.5 ± 0.1"}, {"measurement": "pKa at 18 h", "setting": "[9]; apparent ionization constant, excipient […] NMP", "value": "8.8 ± 0.1"}, {"measurement": "pKa at 18 h", "setting": "[9]; apparent ionization constant, excipient […] PEG400", "value": 8.5}, {"measurement": "pKa at 18 h", "setting": "[9]; apparent ionization constant, excipient […] PG", "value": "8.8 ± 0.1"}, {"measurement": "So ± SD", "setting": "[9]; excipient 3 mM NaTC", "value": "3.1 ± 1.6", "unit": "µg/mL"}, {"measurement": "So^APP ± SD", "setting": "[9]; excipient 3 mM NaTC", "value": "50 ± 10", "unit": "µg/mL"}, {"measurement": "So ± SD", "setting": "[9]; excipient 15 mM NaTC", "value": "2.3 ± 0.4", "unit": "µg/mL"}, {"measurement": "So^APP ± SD", "setting": "[9]; excipient 15 mM NaTC", "value": "96 ± 4", "unit": "µg/mL"}, {"measurement": "So ± SD", "setting": "[9]; excipient 0.1M KCl", "value": "1.3 ± 0.8", "unit": "µg/mL"}, {"measurement": "So^APP ± SD", "setting": "[9]; excipient 0.1M KCl", "value": "83 ± 17", "unit": "µg/mL"}, {"measurement": "So ± SD", "setting": "[9]; excipient 0.2M KCl", "value": "2.5 ± 0.2", "unit": "µg/mL"}, {"measurement": "So^APP ± SD", "setting": "[9]; excipient 0.2M KCl", "value": "78 ± 2", "unit": "µg/mL"}, {"measurement": "So ± SD", "setting": "[9]; excipient 1% HP-b-CD", "value": "1.5 ± 0.4", "unit": "µg/mL"}, {"measurement": "So^APP ± SD", "setting": "[9]; excipient 1% HP-b-CD", "value": "141 ± 7", "unit": "µg/mL"}, {"measurement": "So ± SD", "setting": "[9]; excipient 1% NMP", "value": "1.9 ± 0.5", "unit": "µg/mL"}, {"measurement": "So^APP ± SD", "setting": "[9]; excipient 1% NMP", "value": "71 ± 5", "unit": "µg/mL"}, {"measurement": "So ± SD", "setting": "[9]; excipient 1% PEG400", "value": "2.8 ± 0.4", "unit": "µg/mL"}, {"measurement": "So^APP ± SD", "setting": "[9]; excipient 1% PEG400", "value": "107 ± 2", "unit": "µg/mL"}, {"measurement": "So ± SD", "setting": "[9]; excipient 1% PG", "value": "0.9 ± 0.2", "unit": "µg/mL"}, {"measurement": "So^APP ± SD", "setting": "[9]; excipient 1% PG", "value": "69 ± 5", "unit": "µg/mL"}, {"measurement": "So ± SD", "setting": "[9]; excipient 5% PEG400", "value": 2.8, "unit": "µg/mL"}, {"measurement": "So^APP ± SD", "setting": "[9]; excipient 5% PEG400", "value": 107, "unit": "µg/mL"}, {"measurement": "So ± SD", "setting": "[9]; excipient 5% PG", "value": "1.5 ± 0.5", "unit": "µg/mL"}, {"measurement": "So^APP ± SD", "setting": "[9]; excipient 5% PG", "value": "66 ± 9", "unit": "µg/mL"}, {"measurement": "So ± SD", "setting": "[9]; excipient […] HP-b-CD", "value": "2.0 ± 0.3", "unit": "µg/mL"}, {"measurement": "So^APP ± SD", "setting": "[9]; excipient […] HP-b-CD", "value": "79 ± 4", "unit": "µg/mL"}, {"measurement": "So ± SD", "setting": "[9]; excipient […] NMP", "value": "2.1 ± 0.5", "unit": "µg/mL"}, {"measurement": "So^APP ± SD", "setting": "[9]; excipient […] NMP", "value": "47 ± 3", "unit": "µg/mL"}, {"measurement": "So ± SD", "setting": "[9]; excipient […] PEG400", "value": 3.6, "unit": "µg/mL"}, {"measurement": "So^APP ± SD", "setting": "[9]; excipient […] PEG400", "value": 151, "unit": "µg/mL"}, {"measurement": "So ± SD", "setting": "[9]; excipient […] PG", "value": "2.3 ± 0.5", "unit": "µg/mL"}, {"measurement": "So^APP ± SD", "setting": "[9]; excipient […] PG", "value": "51 ± 4", "unit": "µg/mL"}, {"measurement": "So ± SD", "setting": "[9]; excipient none", "value": "1.9 ± 0.7", "unit": "µg/mL"}, {"measurement": "So^APP ± SD", "setting": "[9]; excipient none", "value": "40 ± 6", "unit": "µg/mL"}, {"measurement": "So^APP ± SD", "setting": "[9]; excipient none, listed as Butacaine", "value": 40, "unit": "µg/mL"}, {"measurement": "salt limit (sdiff 3-4 approximation)", "setting": "[9]; three orders of magnitude above excipient-free intrinsic solubility", "value": 39.8, "unit": "mg/mL"}]}
{"compound": "hydroxypropyl-β-cyclodextrin [HP-β-CD]", "values": [{"measurement": "solubility", "setting": "[10]", "value": 450000, "unit": "µg/mL"}]}
